These results are taken from patent US10653741B2, “Herbo-mineral formulation for the treatment of cardio vascular diseases and method of preparation thereof” (Muniyal Ayurvedic Research Centre, priority 2017, dated 2020).

The nature of data set [1]: Body weight, ISP induced myocardial infarction study. It is filed as in vivo, Sprague-Dawley rats. Conditions: Carvedilol 2 mg/kg + ISP, Mean ± SEM. The source says:
(§1) Animals: 35 male Sprague-Dawley rats of 150-200 g body weight were selected for the study. Animals were housed in individual polycarbonate cages in a well-ventilated room under an ambient temperature of 23±2 degree C. and 40-65% relative humidity, with artificial photoperiod 12-h light/12-h dark cycle. They were provided with standard rodent pellet diet (Nutrilab Rodent, Tetragon Chemie, India) and purified water ad libitum (RIOS, USA). Experimental animals were acclimatized for 7 days to the laboratory conditions prior to experimentation. The study protocol was approved by Institutional Animal Ethical Committee (IAEC).
(§2) Experimental groups and design: Rats were randomized into 5 groups based on the body weight. ISP (120 mg/kg) was injected subcutaneously to rats on 19th and 21st day to induce experimental myocardial infarction. Test drug was orally administered throughout the study. • Group I (Normal control): 0.5% CMC • Group II (Positive control): 0.5% CMC+ISP (120 mg/kg) • Group III (Standard): Carvedilol (2 mg/kg/day, p.o)+ISP (120 mg/kg, s.c.) • Group IV (Low dose): Test drug (50 mg/kg/day, p.o)+ISP (120 mg/kg, s.c.) • Group V (High dose): Test drug (100 mg/kg/day, p.o)+ISP (120 mg/kg, s.c.)
(§3) The change in body weight was recorded every week. At the end of the experiment, blood was collected and the plasma was separated for biochemical investigation. The animals were euthanized and the organs (heart, Kidney and adrenals) were dissected out and weighed. Heart homogenate was used for further analysis and LV was separated for the analysis of apoptotic marker gene expression as depicted in the various examples hereunder.

Data set [2] is described as follows: Organ weight, ISP induced myocardial infarction study. It is filed as in vivo, Sprague-Dawley rats. Conditions: Carvedilol 2 mg/kg + ISP.
Text: as §1, §2, §3

For `COc1ccccc1OCCNCC(O)COc1cccc2[nH]c3ccccc3c12` (centres unmarked) [Carvedilol], the Body weight in data set [1] (0th day) is 211.00 ± 1.70 g; in data set [1] (7th day), 210.57 ± 3.22 g; in data set [1] (14th day) it was 218.43 ± 4.37 g; in data set [1] (21st day) it was 216.43 ± 1.58 g. Besides, the “Organ weight: Heart, percent in brackets (compared with Positive control)” value in data set [2] turned out to be 13.1%. Moreover, the “Organ weight: Adrenals” value in data set [2] (Mean ± SEM) worked out at 0.02 ± 0.00 g. For the same compound, the “Organ weight: Heart” value in data set [2] (Mean ± SEM) is recorded as 0.44 ± 0.07 g. In addition, the “Organ weight: Kidney” value in data set [2] (Mean ± SEM) is recorded as 0.68 ± 0.10 g.
